The supplement of paper PMC8882468

system: HCI-027 (organoid from a triple-negative breast cancer xenograft); experiment: CTG-3D luminescence at 96 h relative to day-0 seeding control (ratio to day 0); higher = more growth / less cytotoxicity; PDxO 3D drug screen, 96 h, CTG-3D normalised to day-0 seeding control.; conditions: 12.5 pM; days in culture: 176

Going from `COc1cc2c(Oc3ccc4[nH]c(C)cc4c3F)ncnc2cc1OCCCN1CCCC1` [cediranib] to `Cc1cc(Nc2ncnc3ccc(NC4=NC(C)(C)CO4)cc23)ccc1Oc1ccn2ncnc2c1` [tucatinib], the “CTG-3D luminescence at 96 h” value rises from 1.99 to 2.4.

Going from `CC(C)n1nc(-c2ccc3oc(N)nc3c2)c2c(N)ncnc21` [sapanisertib] to `C=CCn1c(=O)c2cnc(Nc3ccc(N4CCN(C)CC4)cc3)nc2n1-c1cccc(C(C)(C)O)n1` [adavosertib], the “CTG-3D luminescence at 96 h” value falls from 2.05 to 1.72.

First: C[C@H](NC(=O)CCC(F)(F)F)C(=O)N[C@@H]1C(=O)N(CCO)c2ncccc2-c2ccccc21 [crenigacestat]
Second: O=C(/C=C/c1cccnc1)NCCCCC1CCN(C(=O)c2ccccc2)CC1 [FK866]
The “CTG-3D luminescence at 96 h” value of the first is lower: 1.81 for the first, 1.98 for the second.

Compared with `C[C@]12CC[C@@H]3c4ccc(O)cc4C[C@@H](CCCCCCCCC[S+]([O-])CCCC(F)(F)C(F)(F)F)[C@H]3[C@@H]1CC[C@@H]2O` (some centres not stated) [fulvestrant], `O=C(c1ccc(F)c(F)c1Nc1ccc(I)cc1F)N1CC(O)([C@@H]2CCCCN2)C1` [cobimetinib] is lower in “CTG-3D luminescence at 96 h” value: 2.05 for the first, 2.03 for the second.

For `CS(=O)(=O)c1ccc(C(=O)Nc2ccc(Cl)c(-c3ccccn3)c2)c(Cl)c1` [vismodegib], the “CTG-3D luminescence at 96 h” value was 2.64.

same assay, conditions: 12.5 pM; days in culture: 194

Going from `COc1cc2c(Oc3ccc4[nH]c(C)cc4c3F)ncnc2cc1OCCCN1CCCC1` [cediranib] to `Cc1cc(Nc2ncnc3ccc(NC4=NC(C)(C)CO4)cc23)ccc1Oc1ccn2ncnc2c1` [tucatinib], the “CTG-3D luminescence at 96 h” value rises from 1.76 to 1.81.

First: CC(C)n1nc(-c2ccc3oc(N)nc3c2)c2c(N)ncnc21 [sapanisertib]
Second: C=CCn1c(=O)c2cnc(Nc3ccc(N4CCN(C)CC4)cc3)nc2n1-c1cccc(C(C)(C)O)n1 [adavosertib]
The “CTG-3D luminescence at 96 h” value of the first is higher: 1.72 for the first, 1.64 for the second.

Compared with `C[C@H](NC(=O)CCC(F)(F)F)C(=O)N[C@@H]1C(=O)N(CCO)c2ncccc2-c2ccccc21` [crenigacestat], `O=C(/C=C/c1cccnc1)NCCCCC1CCN(C(=O)c2ccccc2)CC1` [FK866] is lower in “CTG-3D luminescence at 96 h” value: 1.84 for the first, 1.77 for the second.

Going from `C[C@]12CC[C@@H]3c4ccc(O)cc4C[C@@H](CCCCCCCCC[S+]([O-])CCCC(F)(F)C(F)(F)F)[C@H]3[C@@H]1CC[C@@H]2O` (some centres not stated) [fulvestrant] to `O=C(c1ccc(F)c(F)c1Nc1ccc(I)cc1F)N1CC(O)([C@@H]2CCCCN2)C1` [cobimetinib], the “CTG-3D luminescence at 96 h” value rises from 1.74 to 1.89.

With `CS(=O)(=O)c1ccc(C(=O)Nc2ccc(Cl)c(-c3ccccn3)c2)c(Cl)c1` [vismodegib] the “CTG-3D luminescence at 96 h” value was 2.59.

same assay, conditions: 12.5 pM; days in culture: 201

Compared with `COc1cc2c(Oc3ccc4[nH]c(C)cc4c3F)ncnc2cc1OCCCN1CCCC1` [cediranib], `Cc1cc(Nc2ncnc3ccc(NC4=NC(C)(C)CO4)cc23)ccc1Oc1ccn2ncnc2c1` [tucatinib] is higher in “CTG-3D luminescence at 96 h” value: 2.17 for the first, 2.47 for the second.

Going from `CC(C)n1nc(-c2ccc3oc(N)nc3c2)c2c(N)ncnc21` [sapanisertib] to `C=CCn1c(=O)c2cnc(Nc3ccc(N4CCN(C)CC4)cc3)nc2n1-c1cccc(C(C)(C)O)n1` [adavosertib], the “CTG-3D luminescence at 96 h” value falls from 2.25 to 1.68.

Going from `C[C@H](NC(=O)CCC(F)(F)F)C(=O)N[C@@H]1C(=O)N(CCO)c2ncccc2-c2ccccc21` [crenigacestat] to `O=C(/C=C/c1cccnc1)NCCCCC1CCN(C(=O)c2ccccc2)CC1` [FK866], the “CTG-3D luminescence at 96 h” value falls from 2.13 to 1.55.

Going from `C[C@]12CC[C@@H]3c4ccc(O)cc4C[C@@H](CCCCCCCCC[S+]([O-])CCCC(F)(F)C(F)(F)F)[C@H]3[C@@H]1CC[C@@H]2O` (some centres not stated) [fulvestrant] to `O=C(c1ccc(F)c(F)c1Nc1ccc(I)cc1F)N1CC(O)([C@@H]2CCCCN2)C1` [cobimetinib], the “CTG-3D luminescence at 96 h” value falls from 2.63 to 1.99.

For `CS(=O)(=O)c1ccc(C(=O)Nc2ccc(Cl)c(-c3ccccn3)c2)c(Cl)c1` [vismodegib], the “CTG-3D luminescence at 96 h” value was 3.03.

same assay, conditions: 0.00025 µM; days in culture: 176

Going from `COc1cc2c(Oc3ccc4[nH]c(C)cc4c3F)ncnc2cc1OCCCN1CCCC1` [cediranib] to `Cc1cc(Nc2ncnc3ccc(NC4=NC(C)(C)CO4)cc23)ccc1Oc1ccn2ncnc2c1` [tucatinib], the “CTG-3D luminescence at 96 h” value rises from 1.2 to 1.31.

First: CC(C)n1nc(-c2ccc3oc(N)nc3c2)c2c(N)ncnc21 [sapanisertib]
Second: C=CCn1c(=O)c2cnc(Nc3ccc(N4CCN(C)CC4)cc3)nc2n1-c1cccc(C(C)(C)O)n1 [adavosertib]
The “CTG-3D luminescence at 96 h” value of the first is higher: 1.48 for the first, 1.45 for the second.

Going from `C[C@H](NC(=O)CCC(F)(F)F)C(=O)N[C@@H]1C(=O)N(CCO)c2ncccc2-c2ccccc21` [crenigacestat] to `O=C(/C=C/c1cccnc1)NCCCCC1CCN(C(=O)c2ccccc2)CC1` [FK866], the “CTG-3D luminescence at 96 h” value rises from 1.25 to 1.8.

Going from `C[C@]12CC[C@@H]3c4ccc(O)cc4C[C@@H](CCCCCCCCC[S+]([O-])CCCC(F)(F)C(F)(F)F)[C@H]3[C@@H]1CC[C@@H]2O` (some centres not stated) [fulvestrant] to `O=C(c1ccc(F)c(F)c1Nc1ccc(I)cc1F)N1CC(O)([C@@H]2CCCCN2)C1` [cobimetinib], the “CTG-3D luminescence at 96 h” value falls from 1.67 to 1.26.

For `CS(=O)(=O)c1ccc(C(=O)Nc2ccc(Cl)c(-c3ccccn3)c2)c(Cl)c1` [vismodegib], the “CTG-3D luminescence at 96 h” value was 1.85.

same assay, conditions: 0.00025 µM; days in culture: 194

First: COc1cc2c(Oc3ccc4[nH]c(C)cc4c3F)ncnc2cc1OCCCN1CCCC1 [cediranib]
Second: Cc1cc(Nc2ncnc3ccc(NC4=NC(C)(C)CO4)cc23)ccc1Oc1ccn2ncnc2c1 [tucatinib]
The “CTG-3D luminescence at 96 h” value of the first is lower: 1.48 for the first, 1.55 for the second.

Going from `CC(C)n1nc(-c2ccc3oc(N)nc3c2)c2c(N)ncnc21` [sapanisertib] to `C=CCn1c(=O)c2cnc(Nc3ccc(N4CCN(C)CC4)cc3)nc2n1-c1cccc(C(C)(C)O)n1` [adavosertib], the “CTG-3D luminescence at 96 h” value falls from 1.59 to 1.52.

Compared with `C[C@H](NC(=O)CCC(F)(F)F)C(=O)N[C@@H]1C(=O)N(CCO)c2ncccc2-c2ccccc21` [crenigacestat], `O=C(/C=C/c1cccnc1)NCCCCC1CCN(C(=O)c2ccccc2)CC1` [FK866] is higher in “CTG-3D luminescence at 96 h” value: 1.19 for the first, 1.47 for the second.

Going from `C[C@]12CC[C@@H]3c4ccc(O)cc4C[C@@H](CCCCCCCCC[S+]([O-])CCCC(F)(F)C(F)(F)F)[C@H]3[C@@H]1CC[C@@H]2O` (some centres not stated) [fulvestrant] to `O=C(c1ccc(F)c(F)c1Nc1ccc(I)cc1F)N1CC(O)([C@@H]2CCCCN2)C1` [cobimetinib], the “CTG-3D luminescence at 96 h” value falls from 1.82 to 1.29.

With `CS(=O)(=O)c1ccc(C(=O)Nc2ccc(Cl)c(-c3ccccn3)c2)c(Cl)c1` [vismodegib] the “CTG-3D luminescence at 96 h” value was 1.87.

same assay, conditions: 0.00025 µM; days in culture: 201

Compared with `COc1cc2c(Oc3ccc4[nH]c(C)cc4c3F)ncnc2cc1OCCCN1CCCC1` [cediranib], `Cc1cc(Nc2ncnc3ccc(NC4=NC(C)(C)CO4)cc23)ccc1Oc1ccn2ncnc2c1` [tucatinib] is higher in “CTG-3D luminescence at 96 h” value: 1.9 for the first, 2.58 for the second.

Compared with `CC(C)n1nc(-c2ccc3oc(N)nc3c2)c2c(N)ncnc21` [sapanisertib], `C=CCn1c(=O)c2cnc(Nc3ccc(N4CCN(C)CC4)cc3)nc2n1-c1cccc(C(C)(C)O)n1` [adavosertib] is lower in “CTG-3D luminescence at 96 h” value: 1.83 for the first, 1.69 for the second.

Compared with `C[C@H](NC(=O)CCC(F)(F)F)C(=O)N[C@@H]1C(=O)N(CCO)c2ncccc2-c2ccccc21` [crenigacestat], `O=C(/C=C/c1cccnc1)NCCCCC1CCN(C(=O)c2ccccc2)CC1` [FK866] is lower in “CTG-3D luminescence at 96 h” value: 1.77 for the first, 1.66 for the second.

Going from `C[C@]12CC[C@@H]3c4ccc(O)cc4C[C@@H](CCCCCCCCC[S+]([O-])CCCC(F)(F)C(F)(F)F)[C@H]3[C@@H]1CC[C@@H]2O` (some centres not stated) [fulvestrant] to `O=C(c1ccc(F)c(F)c1Nc1ccc(I)cc1F)N1CC(O)([C@@H]2CCCCN2)C1` [cobimetinib], the “CTG-3D luminescence at 96 h” value falls from 2.77 to 1.85.

With `CS(=O)(=O)c1ccc(C(=O)Nc2ccc(Cl)c(-c3ccccn3)c2)c(Cl)c1` [vismodegib] the “CTG-3D luminescence at 96 h” value was 3.03.

same assay, conditions: 0.005 µM; days in culture: 176

Compared with `COc1cc2c(Oc3ccc4[nH]c(C)cc4c3F)ncnc2cc1OCCCN1CCCC1` [cediranib], `Cc1cc(Nc2ncnc3ccc(NC4=NC(C)(C)CO4)cc23)ccc1Oc1ccn2ncnc2c1` [tucatinib] is higher in “CTG-3D luminescence at 96 h” value: 2.24 for the first, 2.9 for the second.

First: CC(C)n1nc(-c2ccc3oc(N)nc3c2)c2c(N)ncnc21 [sapanisertib]
Second: C=CCn1c(=O)c2cnc(Nc3ccc(N4CCN(C)CC4)cc3)nc2n1-c1cccc(C(C)(C)O)n1 [adavosertib]
The “CTG-3D luminescence at 96 h” value of the first is lower: 2.22 for the first, 2.67 for the second.

Compared with `C[C@H](NC(=O)CCC(F)(F)F)C(=O)N[C@@H]1C(=O)N(CCO)c2ncccc2-c2ccccc21` [crenigacestat], `O=C(/C=C/c1cccnc1)NCCCCC1CCN(C(=O)c2ccccc2)CC1` [FK866] is lower in “CTG-3D luminescence at 96 h” value: 0.916 for the first, 0.365 for the second.

Going from `C[C@]12CC[C@@H]3c4ccc(O)cc4C[C@@H](CCCCCCCCC[S+]([O-])CCCC(F)(F)C(F)(F)F)[C@H]3[C@@H]1CC[C@@H]2O` (some centres not stated) [fulvestrant] to `O=C(c1ccc(F)c(F)c1Nc1ccc(I)cc1F)N1CC(O)([C@@H]2CCCCN2)C1` [cobimetinib], the “CTG-3D luminescence at 96 h” value falls from 2.89 to 2.15.

For `CS(=O)(=O)c1ccc(C(=O)Nc2ccc(Cl)c(-c3ccccn3)c2)c(Cl)c1` [vismodegib], the “CTG-3D luminescence at 96 h” value was 2.83.

same assay, conditions: 0.005 µM; days in culture: 194

Going from `COc1cc2c(Oc3ccc4[nH]c(C)cc4c3F)ncnc2cc1OCCCN1CCCC1` [cediranib] to `Cc1cc(Nc2ncnc3ccc(NC4=NC(C)(C)CO4)cc23)ccc1Oc1ccn2ncnc2c1` [tucatinib], the “CTG-3D luminescence at 96 h” value rises from 1.39 to 1.49.

Going from `CC(C)n1nc(-c2ccc3oc(N)nc3c2)c2c(N)ncnc21` [sapanisertib] to `C=CCn1c(=O)c2cnc(Nc3ccc(N4CCN(C)CC4)cc3)nc2n1-c1cccc(C(C)(C)O)n1` [adavosertib], the “CTG-3D luminescence at 96 h” value falls from 1.5 to 1.33.

Going from `C[C@H](NC(=O)CCC(F)(F)F)C(=O)N[C@@H]1C(=O)N(CCO)c2ncccc2-c2ccccc21` [crenigacestat] to `O=C(/C=C/c1cccnc1)NCCCCC1CCN(C(=O)c2ccccc2)CC1` [FK866], the “CTG-3D luminescence at 96 h” value falls from 0.958 to 0.26.

Compared with `C[C@]12CC[C@@H]3c4ccc(O)cc4C[C@@H](CCCCCCCCC[S+]([O-])CCCC(F)(F)C(F)(F)F)[C@H]3[C@@H]1CC[C@@H]2O` (some centres not stated) [fulvestrant], `O=C(c1ccc(F)c(F)c1Nc1ccc(I)cc1F)N1CC(O)([C@@H]2CCCCN2)C1` [cobimetinib] is lower in “CTG-3D luminescence at 96 h” value: 1.53 for the first, 1.38 for the second.

`CS(=O)(=O)c1ccc(C(=O)Nc2ccc(Cl)c(-c3ccccn3)c2)c(Cl)c1` [vismodegib] was tested, and the “CTG-3D luminescence at 96 h” value was 2.35.
